Test results as given in patent US7601722B2, “Aryl sulfamide derivatives and methods of their use” (Wyeth, priority 2006, dated 2009).
Counter-ions that a name gives are not always drawn.

Legend:
hNET = hNET (Homo sapiens, UniProt P23975); assay: hNET binding according to Mahaney et al.; conditions: hNET binding per footnote, printed in the NE uptake column
[1] = Rat Liver Microsomal Stability Assay; type: in vitro ADME; conditions: pH 7.4; rat liver microsomes, 37° C., NADPH, Time 0 and Time 15 min; read-out: RLM stability t1/2
Method: Rat Liver Microsomal Stability Assay:
DMSO stock solutions of test compounds were prepared at 0.5 mM concentration. Diluted solutions of test compounds were prepared by adding 50 uL of each DMSO stock solution to 200 uL of acetonitrile to make 0.1 mM solutions in 20% DMSO/80% acetonitrile. Rat liver microsomal solution was prepared by adding 1.582 mL of concentrated rat liver microsomes (20 mg/mL protein concentration) to 48.291 mL of pre-warmed (to 37° C.) 0.1M potassium phosphate buffer (pH 7.4) containing 127 uL of 0.5 M EDTA to make a 0.6329 mg/mL (protein) microsomal solution. 11.2 uL of each test compound diluted solution was each added directly to 885 uL of rat liver microsomal solution (allowing direct binding of drugs to microsomal proteins and lipids to minimize precipitation and non-specific binding to the plasticware). This solution was mixed and 180 uL was transferred to “Time 0” and “Time 15 min” plates (each in duplicate wells). For the Time 15 min plate, NADPH regenerating agent (45 uL) was added to each well to initiate the reaction, the plate was incubated at 37° C. for 15 min, followed by quenching of the reaction by adding 450 uL of cold acetonitrile to each well. For the Time 0 plate, 450 uL of cold acetonitrile was added to each well, followed by addition of NADPH regenerating agent (45 uL) and no incubation. All of the plates were centrifuged at 3000 rpm for 15 min and the supernatants were transferred to other well plates for analysis by LC-MS.

[2] = target: Dopamine Transporter (hDAT) (Homo sapiens, UniProt Q01959); assay: Dopamine Transporter (hDAT) Membrane Binding Assay
[3] = target: T1, Cloned Human NE Transporters (Homo sapiens, UniProt P23975); assay: hNET Assay Procedure Protocol A: inhibition of [3H] NE uptake (MDCK cells) (hNET uptake); type: cell-based; conditions: MDCK cells expressing hNET, [3H] NE 16 nM
T1 construct: expressed in transfected cells; host or cells: MDCK
Method: hNET Assay Procedure Protocol A: Inhibition of [^3H] NE Uptake into Cloned Human NE Transporters (MDCK Cells) (“hNET uptake”)
[^3H] […] Cells were seeded at 300,000/T75 flask, and split twice weekly.
All uptake experiments were performed in 96-well plates (Falcon Optilux, cat #353947) in a total volume of 250 μl/well. MDCK cells were plated at 50,000 cells/well. […] 25 μl of each test compound was subsequently added to plates in triplicate and incubated at 37° C. for 5 minutes. All test compounds were dissolved in 100% DMSO and diluted in 4% DMSO/H2O, and assayed using a 7-point dose response curve (1 nM-10 μM). Next, 25 μl of [^3H] NE (74.9 Ci/mmol, Perkin Elmer, Boston, Mass.) was added to all wells and incubated at 37° C. for an additional 5 minutes. Non-specific uptake was defined by 20 μM desipramine. The final concentrations of [^3H] NE was 16 nM, respectively. The reaction was terminated by aspiration and washed with ice cold 50 mM Tris (pH 7.4). […] 100 μl of Microscint-20 were added to each well (Packard, Perkin Elmer, Boston, Mass.), and the plates were counted using a TopCount (Perkin Elmer, Downer's Grove, Ill.) liquid scintillation counter. […]
IC50 values were calculated using a Prism® nonlinear regression program where % inhibition is plotted versus concentration of inhibitor.

Chain of Dopamine Transporter (hDAT) (Q01959 whole entry): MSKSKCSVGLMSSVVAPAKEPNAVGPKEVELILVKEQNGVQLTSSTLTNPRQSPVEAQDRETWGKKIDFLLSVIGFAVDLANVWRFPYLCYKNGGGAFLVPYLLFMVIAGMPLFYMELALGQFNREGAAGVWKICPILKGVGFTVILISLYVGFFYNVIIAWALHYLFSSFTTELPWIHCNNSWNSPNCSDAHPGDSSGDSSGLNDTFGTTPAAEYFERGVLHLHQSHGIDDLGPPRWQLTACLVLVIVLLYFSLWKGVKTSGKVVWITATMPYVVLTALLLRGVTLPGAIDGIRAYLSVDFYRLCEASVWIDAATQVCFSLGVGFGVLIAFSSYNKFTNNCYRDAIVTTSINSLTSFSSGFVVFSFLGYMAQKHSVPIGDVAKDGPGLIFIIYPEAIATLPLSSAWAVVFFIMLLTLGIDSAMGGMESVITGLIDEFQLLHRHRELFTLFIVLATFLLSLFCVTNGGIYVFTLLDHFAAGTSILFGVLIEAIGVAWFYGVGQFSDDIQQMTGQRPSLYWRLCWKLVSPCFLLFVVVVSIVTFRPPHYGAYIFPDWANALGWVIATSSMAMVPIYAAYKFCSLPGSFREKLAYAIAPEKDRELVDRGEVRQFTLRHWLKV
Chain of hNET (P23975 whole entry): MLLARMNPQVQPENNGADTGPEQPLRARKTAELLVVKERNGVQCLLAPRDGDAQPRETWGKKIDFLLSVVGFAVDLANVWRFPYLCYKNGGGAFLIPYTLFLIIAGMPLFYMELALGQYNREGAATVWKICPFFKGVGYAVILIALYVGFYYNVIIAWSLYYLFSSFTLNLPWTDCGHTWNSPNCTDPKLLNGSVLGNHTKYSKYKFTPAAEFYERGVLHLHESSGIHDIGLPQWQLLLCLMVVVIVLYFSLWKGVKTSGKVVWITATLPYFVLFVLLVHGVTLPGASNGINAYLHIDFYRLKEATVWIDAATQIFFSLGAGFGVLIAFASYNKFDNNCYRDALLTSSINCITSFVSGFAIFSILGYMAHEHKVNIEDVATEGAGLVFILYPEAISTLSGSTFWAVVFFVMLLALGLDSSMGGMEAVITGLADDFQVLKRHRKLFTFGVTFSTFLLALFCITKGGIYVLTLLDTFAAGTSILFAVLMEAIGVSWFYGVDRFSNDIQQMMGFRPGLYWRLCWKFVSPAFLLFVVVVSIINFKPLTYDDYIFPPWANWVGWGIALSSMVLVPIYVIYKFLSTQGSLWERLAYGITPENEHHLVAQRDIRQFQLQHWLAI
T1 sequence (P23975 whole entry): as above

Row | Compound | half-life at 1 µM [1] [min] | IC50 [2] [nM] | other results
1 | NCC1CCN(CCN2c3ccccc3N(c3ccccc3)S2(=O)=O)C1 (stereo not shown) [Example 105, 1-{1-[2-(2,2-dioxido-3-phenyl-2,1,3-benzothiadiazol-1(3H)-yl)ethyl]pyrrolidin-3-yl}methanamine dihydrochloride] |  |  | IC50 (hNET): 289 nM
2 | O=S1(=O)N(CC[C@@H]2CNCCO2)c2ccccc2N1c1ccccc1 [Example 136, 1-{2-[(2R)-morpholin-2-yl]ethyl}-3-phenyl-1,3-dihydro-2,1,3-benzothiadiazole2,2-dioxide] | 3 | 598 | 
3 | O=S1(=O)N(CC[C@H]2CNCCO2)c2ccccc2N1c1ccc(F)cc1F [Example 141, 1-(2,4-difluorophenyl)-3-{2-[(2S)-morpholin-2-yl]ethyl}-1,3-dihydro-2,1,3-benzothiadiazole2,2-dioxide] | 2 |  | 
4 | COc1cccc(N2c3ccccc3N(CC[C@H]3CNCCO3)S2(=O)=O)c1 [Example 146, 1-(3-methoxyphenyl)-3-{2-[(2S)-morpholin-2-yl]ethyl}-1,3-dihydro-2,1,3-benzothiadiazole2,2-dioxide] | 5 |  | 
5 | O=S1(=O)N(CC[C@H]2CNCCO2)c2ccccc2N1c1ccccc1F [Example 148, 1-(2-fluorophenyl)-3-{2-[(2S)-morpholin-2-yl]ethyl}-1,3-dihydro-2,1,3-benzothiadiazole2,2-dioxide] | 4 | 1400 | 
6 | O=S1(=O)N(CC[C@@H]2CNCCO2)c2ccccc2N1c1ccccc1F [Example 149, 1-(2-fluorophenyl)-3-{2-[(2R)-morpholin-2-yl]ethyl}-1,3-dihydro-2,1,3-benzothiadiazole2,2-dioxide] | 5 | 2190 | 
7 | O=S1(=O)N(CC[C@H]2CNCCO2)c2ccccc2N1c1c(F)cccc1F [Example 150, 1-(2,6-difluorophenyl)-3-{2-[(2S)-morpholin-2-yl]ethyl}-1,3-dihydro-2,1,3-benzothiadiazole2,2-dioxide] | 3 |  | 
8 | CN(C)CCOCCN1c2ccccc2N(c2ccc(F)cc2F)S1(=O)=O [Example 170, 2-{2-[3-(2,4-difluorophenyl)-2,2-dioxido-2,1,3-benzothiadiazol-1(3H)-yl]ethoxy}-N,N-dimethylethanamine hydrochloride] |  |  | IC50 (hNET): 207 nM
9 | O=S1(=O)N(CCCCN2CCOCC2)c2ccccc2N1c1ccc(Cl)cc1 [Example 180, 1-(4-chlorophenyl)-3-(4-morpholin-4-ylbutyl)-1,3-dihydro-2,1,3-benzothiadiazole2,2-dioxide] |  |  | IC50 [3]: 1760 nM

Second part, led by results:

Row | half-life at 1 µM [1] [min] | IC50 [2] [nM] | Compound | other results
10 | 5 | 479 | O=S1(=O)N(CC[C@H]2CNCCO2)c2ccccc2N1c1ccccc1 [Example 135, 1-{2-[(2S)-morpholin-2-yl]ethyl}-3-phenyl-1,3-dihydro-2,1,3-benzothiadiazole2,2-dioxide] | 
11 | 9 |  | O=S1(=O)N(CCC2CNCCO2)c2ccccc2N1c1ccc(F)cc1 (stereo not shown) [Example 137, 1-(4-fluorophenyl)-3-(2-morpholin-2-ylethyl)-1,3-dihydro-2,1,3-benzothiadiazole 2,2-dioxide] | 
12 | 10 |  | O=S1(=O)N(CC[C@@H]2CNCCO2)c2ccccc2N1c1ccc(F)cc1 [Example 139, 1-(4-fluorophenyl)-3-{2-[(2R)-morpholin-2-yl]ethyl}-1,3-dihydro-2,1,3-benzothiadiazole2,2-dioxide] | 
